Measurements taken from patent US12528815B2, “5-amino-8-(4-pyridyl)-[1,2,4]triazolo[4,3-c]pyrimidin-3-one compounds for use against cancer” (Nxera Pharma UK Limited, priority 2020, dated 2026).
Where two headings read alike, the source gives them in different places.

Columns and labels:
[1] = molecular target: T1, human adenosine A2A receptor (Homo sapiens, UniProt P29274); assay: Inhibition binding assay, human adenosine A2A receptor membranes, [3H]ZM241385; conditions: 1 nM [3H]ZM241385, HEK293-hA2A membranes, 25° C., 1 h, IC50 converted to Ki with Cheng-Prusoff
T1 construct: expressed in transfected cells; host or cells: HEK293 cells infected with BacMam
Outline: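 Membranes from BacMam-infected HEK293 cells (0.2 μg A2A, 1.4 μg A1) incubated 1 h at 25° C with test compound and 1 nM [3H]ZM241385 (A2A; 50 mM Tris-HCl pH 7.4) or [3H]DPCPX (A1; plus 100 mM NaCl, 10 mM MgCl2). Nonspecific: 1 μM CGS15943 or DPCPX. Filtration, scintillation; IC50 converted to Ki via Cheng-Prusoff.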

[2] = molecular target: T2, human adenosine A1 receptor (Homo sapiens, UniProt P30542); assay: Inhibition binding assay, human adenosine A1 receptor membranes, [3H]DPCPX; conditions: 1 nM [3H]DPCPX, 25° C., 1 h; IC50 converted to Ki with Cheng-Prusoff; read-out: A1 pKi (converted)
T2 construct: expressed in transfected cells; host or cells: HEK293 cells infected with BacMam (the same paragraph also labels the preparation CHO-hA1)
T2 sequence (P30542 1-326): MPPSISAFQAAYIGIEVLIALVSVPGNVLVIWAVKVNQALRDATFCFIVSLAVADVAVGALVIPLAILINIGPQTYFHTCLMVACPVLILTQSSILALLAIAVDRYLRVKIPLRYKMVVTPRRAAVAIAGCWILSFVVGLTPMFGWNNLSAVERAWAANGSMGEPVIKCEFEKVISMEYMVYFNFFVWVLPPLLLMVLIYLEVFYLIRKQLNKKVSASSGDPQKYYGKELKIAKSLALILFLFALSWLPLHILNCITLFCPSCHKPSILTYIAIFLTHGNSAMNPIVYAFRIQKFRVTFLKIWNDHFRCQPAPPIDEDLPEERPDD
Experimental: Inhibition binding assays were performed using 0.2 μg of membranes prepared from HEK293 cells infected with BacMam human adenosine A2A receptor or 1.4 μg of membranes prepared from HEK293 cells infected with BacMam human adenosine A1 receptor. Membranes were incubated in 50 mM Tris-HCl (HEK293-hA2A; pH 7.4) or 50 mM Tris-HCl, 100 mM NaCl, 10 mM MgCl2 (CHO-hA1; pH 7.4) in the presence of varying concentrations of test compound and 1 nM [^3H]ZM241385 (HEK293-hA2A) or [^3H]DPCPX (CHO-hA1) at 25° C. for 1 h. The assay was then terminated by rapid filtration onto GF/B grade Unifilter plates using a TomTec cell harvester, followed by 5×0.5 ml washes with ddH2O. Nonspecific binding was defined in the presence of 1 μM CGS15943 (HEK293-hA2A) or 1 μM DPCPX (CHO-hA1). Bound radioactivity was determined by liquid scintillation counting and inhibition curves were analysed using a four-parameter logistic equation. IC50 values were converted to Ki values with the Cheng-Prusoff equation using a KD value derived from saturation binding studies.

T1 sequence (P29274 whole entry): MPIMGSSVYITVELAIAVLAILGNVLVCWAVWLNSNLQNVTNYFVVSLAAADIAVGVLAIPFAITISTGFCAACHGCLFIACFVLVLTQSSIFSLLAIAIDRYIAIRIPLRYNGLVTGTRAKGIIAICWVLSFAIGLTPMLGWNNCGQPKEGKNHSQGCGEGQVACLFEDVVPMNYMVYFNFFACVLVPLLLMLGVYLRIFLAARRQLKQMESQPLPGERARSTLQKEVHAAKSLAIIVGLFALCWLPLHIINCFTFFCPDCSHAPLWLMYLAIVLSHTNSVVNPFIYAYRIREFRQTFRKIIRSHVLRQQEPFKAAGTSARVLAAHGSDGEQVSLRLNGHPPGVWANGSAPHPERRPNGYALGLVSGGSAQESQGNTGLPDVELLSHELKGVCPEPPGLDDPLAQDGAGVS

| Ki ([1]; read-out: A2A pKi (converted)) [nM] | Ki [2] [nM] | Compound | Ki ([1]; A2A pKi) [nM] |
| --- | --- | --- | --- |
| 79.4 | 1000 | CC1=NN(c2cccc(NCCn3nc4c(-c5cc(C)nc(C)c5)c(-c5ccccc5)nc(N)n4c3=O)c2)C(=O)C1 [Example 1-98, 5-amino-8-(2,6-dimethyl-4-pyridyl)-2-[2-[3-(3-methyl-5-oxo-4H-pyrazol-1-yl)anilino]ethyl]-7-phenyl-[1,2,4]triazolo[4,3-c]pyrimidin-3-one] |  |
| 0.631 | 200 | COC(=O)c1cc(-c2c(-c3ccccc3)nc(N)n3c(=O)n(CCC(F)(F)F)nc23)cc(C)n1 [Example 2-52, methyl 4-[5-amino-3-oxo-7-phenyl-2-(3,3,3-trifluoropropyl)-[1,2,4]triazolo[4,3-c]pyrimidin-8-yl]-6-methyl-pyridine-2-carboxylate] |  |
| 6.31 | 316 | Cc1cc(-c2c(-c3ccccc3)nc(N)n3c(=O)n(C[C@H]4CN(C(=O)OC(C)(C)C)CCN4C)nc23)cc(C)n1 [Example 2-84, tert-butyl (R)-3-((5-amino-8-(2,6-dimethylpyridin-4-yl)-3-oxo-7-phenyl-[1,2,4]triazolo[4,3-c]pyrimidin-2(3H)-yl)methyl)-4-methylpiperazine-1-carboxylate] |  |
| 50.1 | > 3980 | Cc1cc(-c2c(-c3cccnc3)nc(N)n3c(=O)n(CCC(F)(F)F)nc23)cc(C)n1 [Example 2-39, 5-amino-8-(2,6-dimethyl-4-pyridyl)-7-(3-pyridyl)-2-(3,3,3-trifluoropropyl)-[1,2,4]triazolo[4,3-c]pyrimidin-3-one] |  |
| 1.58 | 79.4 | Cc1cc(-c2c(-c3ccccc3)nc(N)n3c(=O)n(C(C)c4cc(F)ccc4F)nc23)cc(C)n1 (stereo not shown) [Example 1-15, 5-amino-2-[1-(2,5-difluorophenyl)ethyl]-8-(2,6-dimethyl-4-pyridyl)-7-phenyl-[1,2,4]triazolo[4,3-c]pyrimidin-3-one] |  |
| 12.6 | 631 | Cc1cc(-c2c(-c3ccc(F)cc3)nc(N)n3c(=O)n(Cc4cccnn4)nc23)cc(CO)n1 [Example 1-58, 5-amino-7-(4-fluorophenyl)-8-[2-(hydroxymethyl)-6-methyl-4-pyridyl]-2-(pyridazin-3-ylmethyl)-[1,2,4]triazolo[4,3-c]pyrimidin-3-one] |  |
| 10 | 1000 | Cc1cc(-c2c(-c3ccccc3)nc(N)n3c(=O)n(C[C@@H]4CN(C(=O)OC(C)(C)C)CCN4C)nc23)cc(C)n1 [Example 2-83, tert-butyl (S)-3-((5-amino-8-(2,6-dimethylpyridin-4-yl)-3-oxo-7-phenyl-[1,2,4]triazolo[4,3-c]pyrimidin-2(3H)-yl)methyl)-4-methylpiperazine-1-carboxylate] |  |
| 0.501 | 126 | COC(=O)C1(Cn2nc3c(-c4cc(C)nc(C)c4)c(-c4ccccc4)nc(N)n3c2=O)CCCC1 [Example 2-29, methyll-[[5-amino-8-(2,6-dimethyl-4-pyridyl)-3-oxo-7-phenyl-[1,2,4]triazolo[4,3-c]pyrimidin-2-yl]methyl]cyclopentanecarboxylate] |  |
| 15.8 | 631 | Cc1cc(-c2c(-c3ccccc3)nc(N)n3c(=O)n(C[C@H]4COCCN4)nc23)cc(C)n1 [Example 2-76, 5-amino-8-(2,6-dimethyl-4-pyridyl)-2-[[(3S)-morpholin-3-yl]methyl]-7-phenyl-[1,2,4]triazolo[4,3-c]pyrimidin-3-one] |  |
| 1.26 | 100 | Cc1cc(-c2c(-c3ccccc3)nc(N)n3c(=O)n(Cc4cccnc4-n4cccn4)nc23)cc(C)n1 [Example 1-19, 5-amino-8-(2,6-dimethyl-4-pyridyl)-7-phenyl-2-[(2-pyrazol-1-yl-3-pyridyl)methyl]-[1,2,4]triazolo[4,3-c]pyrimidin-3-one] |  |
| 1.58 | 316 | Cc1cc(-c2c(-c3ccccc3)nc(N)n3c(=O)n(CCCF)nc23)cc(C)n1 [Example 2-8, 5-amino-8-(2,6-dimethyl-4-pyridyl)-2-(3-fluoropropyl)-7-phenyl-[1,2,4]triazolo[4,3-c]pyrimidin-3-one] |  |
| 50.1 | 794 | Cc1cc(-c2c(-c3ccccc3)nc(N)n3c(=O)n(CC4CS(=O)(=O)C4)nc23)cc(C)n1 [Example 2-90, 5-amino-8-(2,6-dimethyl-4-pyridyl)-2-[(1,1-dioxothietan-3-yl)methyl]-7-phenyl-[1,2,4]triazolo[4,3-c]pyrimidin-3-one] |  |
| 2 | 501 | Cc1cc(-c2c(-c3ccc(C)o3)nc(N)n3c(=O)n(CCC(F)(F)F)nc23)cc(C)n1 [Example 2-43, 5-amino-8-(2,6-dimethyl-4-pyridyl)-7-(5-methyl-2-furyl)-2-(3,3,3-trifluoropropyl)-[1,2,4]triazolo[4,3-c]pyrimidin-3-one] |  |
| 50.1 | 1000 | Cc1cc(-c2c(-c3ccc(F)cc3)nc(N)n3c(=O)n(CCC(F)(F)F)nc23)cc(C)[n+]1[O-] [Example 2-58, 5-amino-8-(2,6-dimethyl-1-oxido-pyridin-1-ium-4-yl)-7-(4-fluorophenyl)-2-(3,3,3-trifluoropropyl)-[1,2,4]triazolo[4,3-c]pyrimidin-3-one] |  |
| 31.6 | 316 | Cc1cc(-c2c(-c3ccccc3)nc(N)n3c(=O)n(Cc4cccnn4)nc23)cc(C)[n+]1[O-] [Example 1-43, 5-amino-8-(2,6-dimethyl-1-oxido-pyridin-1-ium-4-yl)-7-phenyl-2-(pyridazin-3-ylmethyl)-[1,2,4]triazolo[4,3-c]pyrimidin-3-one] |  |
| 5.01 | 200 | Cc1cc(-c2c(-c3ccccc3)nc(N)n3c(=O)n(C)nc23)cc(C)n1 [Example 2-2, 5-amino-8-(2,6-dimethyl-4-pyridyl)-2-methyl-7-phenyl-[1,2,4]triazolo[4,3-c]pyrimidin-3-one] |  |
| 25.1 | > 2510 | Cc1cc(-c2c(-c3ccccc3)nc(N)n3c(=O)n(CCN4CCC4)nc23)cc(C)n1 [Example 2-94, 5-amino-2-[2-(azetidin-1-yl)ethyl]-8-(2,6-dimethyl-4-pyridyl)-7-phenyl-[1,2,4]triazolo[4,3-c]pyrimidin-3-one] |  |
| 15.8 | 794 | Cc1cc(-c2c(-c3ccccc3)nc(N)n3c(=O)n(C[C@@H]4COCCN4)nc23)cc(C)n1 [Example 2-79, (R)-5-amino-8-(2,6-dimethylpyridin-4-yl)-2-(morpholin-3-ylmethyl)-7-phenyl-[1,2,4]triazolo[4,3-c]pyrimidin-3(2H)-one] |  |
| 100 | 794 | Cc1cc(-c2c(-c3ccccc3)nc(N)n3c(=O)n(CCNC(=O)OC(C)(C)C)nc23)cc(C)n1 [Example 2-14, tert-butyl N-[2-[5-amino-8-(2,6-dimethyl-4-pyridyl)-3-oxo-7-phenyl-[1,2,4]triazolo[4,3-c]pyrimidin-2-yl]ethyl]carbamate] |  |
| 3.98 | 501 | CCCn1nc2c(-c3cc(C)nc(C)c3)c(-c3ccccc3)nc(N)n2c1=O [Example 2-20, 5-amino-8-(2,6-dimethyl-4-pyridyl)-7-phenyl-2-propyl-[1,2,4]triazolo[4,3-c]pyrimidin-3-one] |  |
| 316 | > 3160 | Cc1cc(-c2c(-c3ccccc3)nc(N)n3c(=O)n(Cc4ccc(F)cn4)nc23)cc(O)n1 [Example 1-74, 5-amino-2-[(5-fluoro-2-pyridyl)methyl]-8-(2-hydroxy-6-methyl-4-pyridyl)-7-phenyl-[1,2,4]triazolo[4,3-c]pyrimidin-3-one] |  |
| 39.8 | 501 | Cc1cc(-c2c(-c3ccc(F)cc3)nc(N)n3c(=O)n(C)nc23)cc(Cl)n1 [Example 2-49, 5-amino-8-(2-chloro-6-methyl-4-pyridyl)-7-(4-fluorophenyl)-2-methyl-[1,2,4]triazolo[4,3-c]pyrimidin-3-one] |  |

| Compound | Ki ([1]; read-out: A2A pKi (converted)) [nM] | Ki [2] [nM] | Ki ([1]; A2A pKi) [nM] |
| --- | --- | --- | --- |
| Cc1cc(-c2c(-c3ccccc3)nc(N)n3c(=O)n(CCN4C5CCCC4CC5)nc23)cc(C)n1 [Example 2-103, 5-amino-2-[2-(8-azabicyclo[3.2.1]octan-8-yl)ethyl]-8-(2,6-dimethyl-4-pyridyl)-7-phenyl-[1,2,4]triazolo[4,3-c]pyrimidin-3-one] |  | 1000 | 6.31 |
